Data as given in patent publication US10676446B2, “Bicyclic quinazolinone derivatives” (Hoffmann-La Roche Inc., priority 2015, dated 2020).

Target: human ATX (autotaxin, ENPP2), His-tagged (Homo sapiens (Human), UniProt Q13822)
Assay: Human ATX enzyme inhibition assay (fluorescence quenching, MR121 substrate)
Type: biochemical
Conditions: 30 nM ATX, 1 μM MR121 substrate, 30° C., pH 8.0
Experimental: Human ATX Enzyme Inhibition Assay
ATX inhibition was measured by a fluorescence quenching assay using a specifically labeled substrate analogue (MR121 substrate). To obtain this MR121 substrate, BOC and TBS protected 6-amino-hexanoic acid (R)-3-({2-[3-(2-{2-[2-(2-amino-ethoxy)-ethoxy]-ethoxy}-ethoxy)-propionylamino]-ethoxy}-hydroxy-phosphoryloxy)-2-hydroxy-propyl ester (Ferguson et al., Org. Lett. 2006, 8, 2023) was labeled with MR121 fluorophore [CAS RN 185308-24-1], 1-(3-carboxypropyl)-11-ethyl-1,2,3,4,8,9,10,11-octahydro-dipyrido[3,2-b:2′,3′-i]phenoxazin-13-ium) on the free amine of the ethanolamine side and then, after deprotection, subsequently with tryptophan on the side of the aminohexanoic acid.
Assay working solutions were made as follows:
Assay buffer (50 mM Tris-HCl, 140 mM NaCl, 5 mM KCl, 1 mM CaCl2, 1 mM MgCl2, 0.01% Triton-X-100, pH 8.0;
ATX solution: ATX (human His-tagged) stock solution (1.08 mg/mL in 20 mM bicine, pH 8.5, 0.15 M NaCl, 10% glycerol, 0.3% CHAPS, 0.02% NaN3), diluted to 1.4-2.5× final concentration in assay buffer;
MR121 substrate solution: MR121 substrate stock solution (800 μM MR121 substrate in DMSO), diluted to 2-5× final concentration in assay buffer.
Test compounds (10 mM stock in DMSO, 8 μL) were obtained in 384 well sample plates (Corning Costar #3655) and diluted with 8 μL DMSO. Row-wise serial dilutions were made by transferring 8 μL cpd solution to the next row up to row O. The compound and control solutions were mixed five times and 2 μL were transferred to 384 well assay plates (Corning Costar #3702). Then, 15 μL of 41.7 nM ATX solution was added (30 nM final concentration), mixed five times and then incubated for 15 minutes at 30° C. 10 μL of MR121 substrate solution was added (1 μM final concentration), mixed 30 times and then incubated for 15 minutes at 30° C.

Row | SMILES | IC50
1 | CN(Cc1ccc(C#N)c(Cl)c1)C(=O)Cn1cnc2ccc(C3CCN(CC4CCOC4)CC3)cc2c1=O (centres unmarked) [Example 143, N-[(3-Chloro-4-cyanophenyl)methyl]-N-methyl-2-[4-oxo-6-[1-(oxolan-3-ylmethyl)piperidin-4-yl]quinazolin-3-yl]acetamide] | 0.046 µM
2 | CC(=O)N1CCN(c2ccc3ncn(CC(=O)NCc4ccc(C)c(Cl)c4)c(=O)c3c2)CC1 [Example 42] | 0.14 µM
3 | CN(Cc1ccc(C#N)c(Cl)c1)C(=O)Cn1cnc2ccc(N3CCN(CC4CCOC4)CC3)cc2c1=O (centres unmarked) [Example 114, N-[(3-Chloro-4-cyanophenyl)methyl]-N-methyl-2-[4-oxo-6-[4-(oxolan-3-ylmethyl)piperazin-1-yl]quinazolin-3-yl]acetamide] | 0.026 µM
4 | CN(Cc1ccc(Cl)c(Cl)c1)C(=O)Cn1cnc2ccc(N3CCN(C(=O)C4(C(F)(F)F)CCC4)CC3)cc2c1=O [Example 76] | 0.01 µM
5 | CN(Cc1ccc(Cl)c(C#N)c1)C(=O)Cn1cnc2ccc(N3CCCN(CC4CCOC4)CC3)cc2c1=O (centres unmarked) [Example 130, N-[(4-Chloro-3-cyanophenyl)methyl]-N-methyl-2-[4-oxo-6-[4-(oxolan-3-ylmethyl)-1,4-diazepan-1-yl]quinazolin-3-yl]acetamide] | 0.111 µM
6 | N#Cc1ccc(CNC(=O)Cn2cnc3ccc(N4CCN(C(=O)C5COC5)CC4)cc3c2=O)c(Cl)c1 [Example 113, N-[(2-Chloro-4-cyanophenyl)methyl]-2-[6-[4-(oxetane-3-carbonyl)piperazin-1-yl]-4-oxoquinazolin-3-yl]acetamide] | 0.202 µM
7 | CC(=O)N1CCN(c2ccc3nc(C)n(CC(=O)NCc4ccc(Cl)c(Cl)c4)c(=O)c3c2)CC1 [Example 151, 2-[6-(4-Acetylpiperazin-1-yl)-2-methyl-4-oxoquinazolin-3-yl]-N-[(3,4-dichlorophenyl)methyl]acetamide] | 0.021 µM
8 | CC(=O)N1CCN(c2ccc3[nH]c(=O)n(CC(=O)NCc4ccc(Cl)c(Cl)c4)c(=O)c3c2)CC1 [Example 152, 2-[6-(4-Acetylpiperazin-1-yl)-2,4-dioxo-1H-quinazolin-3-yl]-N-[(3,4-dichlorophenyl)methyl]acetamide] | 0.18 µM
9 | CC(=O)N1CCN(c2ccc3ncn(CC(=O)NCc4c(F)cc(C#N)cc4F)c(=O)c3c2)CC1 [Example 31] | 0.331 µM
10 | CC(=O)N1CCN(c2ccc3ncn(CC(=O)NC(CC(=O)N(C)C)c4ccc(C(F)(F)F)cc4)c(=O)c3c2)CC1 (centres unmarked) [Example 5] | 0.121 µM
11 | CC(=O)N1CCN(c2ccc3ncn(CC(=O)NCc4ccc(Cl)c(OC(F)(F)F)c4)c(=O)c3c2)CC1 [Example 38] | 0.004 µM
12 | CN(Cc1ccc(C#N)c(Cl)c1)C(=O)Cn1cnc2ccc(N3CCCN(CC4CCOC4)CC3)cc2c1=O (centres unmarked) [Example 129, N-[(3-Chloro-4-cyanophenyl)methyl]-N-methyl-2-[4-oxo-6-[4-(oxolan-3-ylmethyl)-1,4-diazepan-1-yl]quinazolin-3-yl]acetamide] | 0.026 µM
13 | CNC(=O)CCN(Cc1ccc(Cl)c(Cl)c1)C(=O)Cn1cnc2ccc(N3CCN(C(C)=O)CC3)cc2c1=O [Example 55, 3-[[2-[6-(4-Acetylpiperazin-1-yl)-4-oxoquinazolin-3-yl]acetyl]-[(3,4-dichlorophenyl)methyl]amino]-N-methylpropanamide] | 0.038 µM
14 | COC(C)C(=O)N1CCC(c2ccc3ncn(CC(=O)N(C)Cc4ccc(C#N)c(Cl)c4)c(=O)c3c2)CC1 (centres unmarked) [Example 133] | 0.001 µM
15 | CC(=O)N1CCN(c2ccc3ncn(CC(=O)N(C)Cc4cc(F)c(C#N)c(F)c4)c(=O)c3c2)CC1 [Example 58, 2-[6-(4-Acetylpiperazin-1-yl)-4-oxoquinazolin-3-yl]-N-[(4-cyano-3,5-difluorophenyl)methyl]-N-methylacetamide] | 0.015 µM
16 | CC(=O)N1CCC(c2ccc3ncn(CC(=O)NCc4ccc(F)c(C(F)(F)F)c4)c(=O)c3c2)CC1 [Example 162] | 0.044 µM

Row | SMILES | IC50
17 | O=C(Cn1cnc2ccc(N3CCN(S(=O)(=O)C4CCCCC4)CC3)cc2c1=O)NCc1ccc(Cl)c(Cl)c1 [Example 90] | 0.035 µM
18 | CC(=O)N1CCC(c2ccc3ncn(CC(=O)N(C)Cc4ccc(Cl)c(Cl)c4)c(=O)c3c2)CC1 [Example 124] | 0.007 µM
19 | CC(C)CC(=O)N1CCN(c2ccc3ncn(CC(=O)NCc4ccc(Cl)c(Cl)c4)c(=O)c3c2)CC1 [Example 59, N-[(3,4-Dichlorophenyl)methyl]-2-[6-[4-(3-methylbutanoyl)piperazin-1-yl]-4-oxoquinazolin-3-yl]acetamide] | 0.07 µM
20 | O=C(Cn1cnc2ccc(N3CCN(CC(O)CO)CC3)cc2c1=O)NCc1ccc(Cl)c(Cl)c1 (centres unmarked) [Example 95] | 0.068 µM
21 | COC(=O)N1CCC(c2ccc3ncn(CC(=O)N(C)Cc4ccc(C#N)c(Cl)c4)c(=O)c3c2)CC1 [Example 160, Methyl 4-[3-[2-[(3-chloro-4-cyanophenyl)methyl-methylamino]-2-oxoethyl]-4-oxoquinazolin-6-yl]piperidine-1-carboxylate] | 0.158 µM
22 | CC(=O)N1CCN(c2ccc3ncn(CC(=O)N(C)Cc4ccc(C#N)c(F)c4)c(=O)c3c2)CC1 [Example 45] | 0.038 µM
23 | CC(=O)N1CCN(c2ccc3ncn(CC(=O)NCc4ccc(C#N)cc4F)c(=O)c3c2)CC1 [Example 30] | 0.139 µM
24 | CN(Cc1ccc(Cl)c(Cl)c1)C(=O)Cn1cnc2ccc(N3CCN(CC4CC4)CC3)cc2c1=O [Example 104, 2-[6-[4-(Cyclopropylmethyl)piperazin-1-yl]-4-oxoquinazolin-3-yl]-N-[(3,4-dichlorophenyl)methyl]-N-methylacetamide] | 0.064 µM
25 | CN(Cc1ccc(Cl)c(Cl)c1)C(=O)Cn1cnc2ccc(C3CCN(C(=O)C4(C)CCCO4)CC3)cc2c1=O (centres unmarked) [Example 181] | 0.008 µM
26 | CNC(=O)CC(NC(=O)Cn1cnc2ccc(N3CCN(C(C)=O)CC3)cc2c1=O)c1ccc(Cl)c(Cl)c1 (centres unmarked) [Example 52, 3-[[2-[6-(4-Acetylpiperazin-1-yl)-4-oxoquinazolin-3-yl]acetyl]amino]-3-(3,4-dichlorophenyl)-N-methylpropanamide] | 0.072 µM
27 | CN(Cc1ccc(C#N)c(Cl)c1)C(=O)Cn1cnc2ccc(C3CCN(C(=O)CO)CC3)cc2c1=O [Example 131, N-[(3-Chloro-4-cyanophenyl)methyl]-2-[6-[1-(2-hydroxyacetyl)piperidin-4-yl]-4-oxoquinazolin-3-yl]-N-methylacetamide] | 0.001 µM
28 | CN(Cc1ccc(C#N)c(Cl)c1)C(=O)Cn1cnc2ccc(C3CCN(C(=O)CCC#N)CC3)cc2c1=O [Example 155, N-[(3-Chloro-4-cyanophenyl)methyl]-2-[6-[1-(3-cyanopropanoyl)piperidin-4-yl]-4-oxoquinazolin-3-yl]-N-methylacetamide] | 0.153 µM
29 | CC(=O)N1CCN(c2ccc3ncn(CC(=O)NCc4ccc(F)c(OC(F)(F)F)c4)c(=O)c3c2)CC1 [Example 26] | 0.051 µM
30 | CN(Cc1ccc(Cl)c(Cl)c1)C(=O)Cn1cnc2ccc(C3CCN(C(=O)C4(O)CCC4)CC3)cc2c1=O [Example 176] | 0.046 µM
31 | CS(=O)(=O)N1CCN(c2ccc3ncn(CC(=O)NCc4ccc(Cl)c(Cl)c4)c(=O)c3c2)CC1 [Example 88, N-[(3,4-Dichlorophenyl)methyl]-2-[6-(4-methylsulfonylpiperazin-1-yl)-4-oxoquinazolin-3-yl]acetamide] | 0.088 µM
32 | CC(C)C(=O)N1CCN(c2ccc3ncn(CC(=O)N(C)Cc4ccc(Cl)c(Cl)c4)c(=O)c3c2)CC1 [Example 69] | 0.003 µM
